Molecular target: T1, CYP11A1 (Homo sapiens, UniProt P05108)
T1 construct: human H295R adrenocortical carcinoma cell line was used as source of enzyme; endogenous in cells; host or cells: H295R human adrenocortical carcinoma cells
T1 sequence (P05108 40-521): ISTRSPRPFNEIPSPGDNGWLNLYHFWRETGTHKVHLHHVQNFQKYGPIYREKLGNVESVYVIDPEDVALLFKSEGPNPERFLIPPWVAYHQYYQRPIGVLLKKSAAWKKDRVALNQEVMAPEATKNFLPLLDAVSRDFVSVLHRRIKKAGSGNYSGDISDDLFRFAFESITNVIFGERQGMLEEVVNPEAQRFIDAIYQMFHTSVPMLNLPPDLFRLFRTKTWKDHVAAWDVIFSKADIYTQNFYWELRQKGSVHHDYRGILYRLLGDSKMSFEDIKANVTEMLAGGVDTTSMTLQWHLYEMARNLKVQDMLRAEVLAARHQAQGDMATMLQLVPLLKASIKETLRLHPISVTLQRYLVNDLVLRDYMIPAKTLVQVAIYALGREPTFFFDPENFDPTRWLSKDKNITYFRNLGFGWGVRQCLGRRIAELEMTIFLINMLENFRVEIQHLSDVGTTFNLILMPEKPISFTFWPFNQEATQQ
Test: CYP11A1 inhibition: modified isocaproic acid release assay (IARA) in H295R cells
Assay type: cell-based
Conditions: human H295R adrenocortical carcinoma cells treated three days, 3 nM [24,25-3H]-labelled cholesterol, 1% DMSO, 10 concentrations in duplicates; read-out: IC50 of the test compounds on CYP11A1 inhibition
Outline: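 H295R adrenocortical cells treated three days with test compounds at 10 concentrations in duplicate plus 3 nM [24,25-3H]-cholesterol, 1% DMSO final. Released radiolabelled isocaproic acid measured by scintillation counting after dextran-coated charcoal extraction; IC50 determined.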

SMILES | IC50 [nM]
CS(=O)(=O)c1ccc(COc2coc(CN3CCc4ccccc4C3)cc2=O)cc1 [Compound 14, 2-((3,4-Dihydroisoquinolin-2(1H)-yl)methyl)-5-((4-(methylsulfonyl)benzyl)oxy)-4H-pyran-4-one] | 301 to 2000
CC(C)NC(=O)N1CCC(COc2coc(CN3Cc4ccccc4C3)cc2=O)CC1 [Compound 229, 4-(((6-(Isoindolin-2-ylmethyl)-4-oxo-4H-pyran-3-yl)oxy)methyl)-N-isopropyl-piperidine-1-carboxamide] | < 150
CN(C)S(=O)(=O)N1CCC(COc2coc(CN3Cc4ccc(F)cc4C3)cc2=O)CC1 [Compound 230, 4-(((6-((5-Fluoroisoindolin-2-yl)methyl)-4-oxo-4H-pyran-3-yl)oxy)methyl)-N,N-dimethylpiperidine-1-sulfonamide] | < 150
CC(=O)c1ccc(COc2coc(CN3Cc4ccccc4C3)cc2=O)cc1 [Compound 31, 5-((4-Acetylbenzyl)oxy)-2-(isoindolin-2-ylmethyl)-4H-pyran-4-one] | 150 to 300
O=c1cc(CN2Cc3ccc(C(F)(F)F)cc3C2)occ1OCC1CCN(S(=O)(=O)C2COC2)CC1 [Compound 69a, 5-((1-(Oxetan-3-ylsulfonyl)piperidin-4-yl)methoxy)-2-((5-(trifluoromethyl)-isoindolin-2-yl)methyl)-4H-pyran-4-one] | < 150
O=C(c1ccc(COc2coc(CN3Cc4ccccc4C3)cc2=O)cc1)N1CCC(O)CC1 [Compound 152, 5-((4-(4-Hydroxypiperidine-1-carbonyl)benzyl)oxy)-2-(isoindolin-2-ylmethyl)-4H-pyran-4-one] | 301 to 2000
O=c1cc(CN2Cc3ccccc3C2)occ1OCc1cccc([N+](=O)[O-])c1 [Compound 105, 2-(Isoindolin-2-ylmethyl)-5-((3-nitrobenzyl)oxy)-4H-pyran-4-one] | 301 to 2000
CN(C)C(=O)c1ccc(COc2coc(CN3Cc4ccccc4C3)cc2=O)cc1 [Compound 120, 4-(((6-(Isoindolin-2-ylmethyl)-4-oxo-4H-pyran-3-yl)oxy)methyl)-N,N-dimethylbenzamide] | 150 to 300
COc1ccc(COc2coc(CN3Cc4ccccc4C3)cc2=O)cn1 [Compound 76, 2-(Isoindolin-2-ylmethyl)-5-((6-methoxypyridin-3-yl)methoxy)-4H-pyran-4-one] | 301 to 2000
Cc1ccc(COc2coc(CN3CCc4ccccc4C3)cc2=O)cc1 [Compound 42, 2-((3,4-Dihydroisoquinolin-2(1H)-yl)methyl)-5-((4-methylbenzyl)oxy)-4H-pyran-4-one] | 301 to 2000
CC(C)(C)NC(=O)N1CCC(COc2coc(CN3Cc4ccccc4C3)cc2=O)CC1 [Compound 248, N-(tert-Butyl)-4-(((6-(isoindolin-2-ylmethyl)-4-oxo-4H-pyran-3-yl)oxy)-methyl)piperidine-1-carboxamide] | 150 to 300
O=c1cc(CN2Cc3ccccc3C2)occ1OCCCc1ccncc1 [Compound 214, 2-(Isoindolin-2-ylmethyl)-5-(3-(pyridin-4-yl)propoxy)-4H-pyran-4-one] | 150 to 300
CCS(=N)(=O)c1ccc(COc2coc(CN3Cc4ccc([N+](=O)[O-])cc4C3)cc2=O)cc1 (stereo not shown) [Compound 168, 5-((4-(Ethylsulfonimidoyl)benzyl)oxy)-2-((5-nitroisoindolin-2-yl)methyl)-4H-pyran-4-one] | 150 to 300
O=C(COc1coc(CN2Cc3ccccc3C2)cc1=O)N1CCN(Cc2ccccc2)CC1 [Compound 153, 5-(2-(4-Benzylpiperazin-1-yl)-2-oxoethoxy)-2-(isoindolin-2-ylmethyl)-4H-pyran-4-one] | 301 to 2000
CS(=O)(=O)c1ccc(COc2coc(CN3Cc4ccccc4C3)cc2=O)c(F)c1 [Compound 34, 5-((2-Fluoro-4-(methylsulfonyl)benzyl)oxy)-2-(isoindolin-2-ylmethyl)-4H-pyran-4-one] | 150 to 300
COc1ccc2c(c1)CCN(Cc1cc(=O)c(OCc3ccc(C#N)cc3)co1)C2 [Compound 53, 4-(((6-((6-Methoxy-3,4-dihydroisoquinolin-2(1H)-yl)methyl)-4-oxo-4H-pyran-3-yl)oxy)methyl)benzonitrile] | 150 to 300
O=C(NC1CC1)N1CCC(COc2coc(CN3Cc4ccccc4C3)cc2=O)CC1 [Compound 247, N-Cyclopropyl-4-(((6-(isoindolin-2-ylmethyl)-4-oxo-4H-pyran-3-yl)oxy)-methyl)piperidine-1-carboxamide] | 150 to 300
O=C(c1ccc(COc2coc(CN3Cc4ccc(F)cc4C3)cc2=O)cc1)N1CC(F)(F)C1 [Compound 161, 5-((4-(3,3-Difluoroazetidine-1-carbonyl)benzyl)oxy)-2-((5-fluoroisoindolin-2-yl)methyl)-4H-pyran-4-one] | 150 to 300

Now from value to molecule:

IC50 [nM] | SMILES
301 to 2000 | CS(=O)(=O)N1CCC(COc2coc(CN3Cc4ccc(C#N)cc4C3)cc2=O)CC1 [Compound 245a, 2-((5-((1-(methylsulfonyl)piperidin-4-yl)methoxy)-4-oxo-4H-pyran-2-yl)methyl)-isoindoline-5-carbonitrile]
301 to 2000 | O=c1cc(CN2Cc3ccccc3C2)occ1OCc1ccc(CO)cc1 [Compound 123, 5-((4-(Hydroxymethyl)benzyl)oxy)-2-(isoindolin-2-ylmethyl)-4H-pyran-4-one]
150 to 300 | CC(C)(C)NC(=O)c1ccc(COc2coc(CN3CCc4ccccc4C3)cc2=O)cc1 [Compound 135, N-(tert-Butyl)-4-(((6-((3,4-dihydroisoquinolin-2(1H)-yl)methyl)-4-oxo-4H-pyran-3-yl)oxy)methyl)benzamide]
< 150 | CC(F)(F)C(=O)N1CCC(COc2coc(CN3Cc4ccccc4C3)cc2=O)CC1 [Compound 222, 5-((1-(2,2-Difluoropropanoyl)piperidin-4-yl)methoxy)-2-(isoindolin-2-ylmethyl)-4H-pyran-4-one]
301 to 2000 | CN(C)C(=O)N1CCC(COc2coc(CN3Cc4ccccc4C3)cc2=O)C1 (stereo not shown) [Compound 183, 3-(((6-(Isoindolin-2-ylmethyl)-4-oxo-4H-pyran-3-yl)oxy)methyl)-N,N-dimethyl-pyrrolidine-1-carboxamide]
< 150 | CCC(=O)N1CCC(COc2coc(CN3Cc4ccccc4C3)cc2=O)CC1 [Compound 261, 2-(Isoindolin-2-ylmethyl)-5-((1-propionylpiperidin-4-yl)methoxy)-4H-pyran-4-one]
150 to 300 | CS(=N)c1ccc(COc2coc(CN3Cc4ccccc4C3)cc2=O)cc1 (stereo not shown) [Compound 85, 2-(Isoindolin-2-ylmethyl)-5-((4-(S-methylsulfinimidoyl)benzyl)oxy)-4H-pyran-4-one]
150 to 300 | CCS(=N)(=O)c1ccc(COc2coc(CN3Cc4ccc(F)cc4C3)cc2=O)cc1 (stereo not shown) [Compound 102, 5-((4-(Ethylsulfonimidoyl)benzyl)oxy)-2-((5-fluoroisoindolin-2-yl)methyl)-4H-pyran-4-one]
150 to 300 | CS(=O)(=O)N1C=CC(COc2coc(CN3Cc4ccc(C(F)(F)F)cc4C3)cc2=O)CC1 (stereo not shown) [Compound 291, 5-((1-(Methylsulfonyl)-1,2,3,4-tetrahydropyridin-4-yl)methoxy)-2-((5-(trifluoro-methyl)isoindolin-2-yl)methyl)-4H-pyran-4-one]
150 to 300 | CS(=O)(=O)N1CCC(COc2coc(CN3Cc4cc5c(cc4C3)OCO5)cc2=O)CC1 [Compound 209, 2-((5,7-Dihydro-6H-[1,3]dioxolo[4,5-f]isoindol-6-yl)methyl)-5-((1-(methyl-sulfonyl)piperidin-4-yl)methoxy)-4H-pyran-4-one]
301 to 2000 | O=C(COc1coc(CN2Cc3ccccc3C2)cc1=O)N1CCN(c2ccc(Cl)cc2)CC1 [Compound 154, 5-(2-(4-(4-Chlorophenyl)piperazin-1-yl)-2-oxoethoxy)-2-(isoindolin-2-ylmethyl)-4H-pyran-4-one]
< 150 | O=c1cc(CN2Cc3ccc(F)cc3C2)occ1OCC1CCN(S(=O)(=O)C2CC2)CC1 [Compound 190, 5-((1-(Cyclopropylsulfonyl)piperidin-4-yl)methoxy)-2-((5-fluoroisoindolin-2-yl)methyl)-4H-pyran-4-one]
150 to 300 | CC(C)(CO)NC(=O)c1ccc(COc2coc(CN3Cc4ccccc4C3)cc2=O)cc1 [Compound 283, N-(1-hydroxy-2-methylpropan-2-yl)-4-(((6-(isoindolin-2-ylmethyl)-4-oxo-4H-pyran-3-yl)oxy)methyl)benzamide]
150 to 300 | CC(C)S(=O)(=O)N1CC=C(COc2coc(CN3Cc4ccccc4C3)cc2=O)CC1 [Compound 100, 2-(Isoindolin-2-ylmethyl)-5-((1-(isopropylsulfonyl)-1,2,3,6-tetrahydropyridin-4-yl)methoxy)-4H-pyran-4-one]
150 to 300 | CCN(CC)C(=O)c1ccc(COc2coc(CN3Cc4ccccc4C3)cc2=O)cc1 [Compound 126, N,N-Diethyl-4-(((6-(isoindolin-2-ylmethyl)-4-oxo-4H-pyran-3-yl)oxy)methyl)-benzamide]
150 to 300 | O=C(c1ccc(COc2coc(CN3Cc4ccc(Cl)cc4C3)cc2=O)cc1)N1CC(F)(F)C1 [Compound 163, 2-((5-Chloroisoindolin-2-yl)methyl)-5-((4-(3,3-difluoroazetidine-1-carbonyl)-benzyl)oxy)-4H-pyran-4-one]

From US11098032B2, “Pyran dervatives as CYP11A1 (cytochrome P450 monooxygenase 11A1) inhibitors” (ORION CORPORATION, priority 2016, dated 2021)
